Source: patent US10888545B2, “Compositions and methods for treating estrogen-related medical disorders” (THE BOARD OF TRUSTEES OF THE UNIVERSITY OF ILLINOIS, priority 2012, dated 2021)
Where two headings read alike, the source gives them in different places.

Assays:
[1] = juvenile female rats, after 3 days of drug administration; cited from earlier work
T47D:A18/neo cells [2] = assay: Colony formation assay in […], T47D:A18/neo; assay type: cell-based; details: 3D culture, 10 days; E2 1 nM, BTC 100 nM, TTC-352 100 nM
Experimental: (§1) Colony formation assay in […] Matrix. […] (Becton Dickinson, Franklin Lakes, N.J. USA) was thawed overnight at 4° C. Twelve-well plates were coated with 200 μL […]/well and incubated at 37° C. for 30 min. Cells were suspended at 5×103 in 400 μL of phenol red-free RPMI 1640 and spread onto pre-gelled […] and allowed to incubate at 37° C. for 30 minutes, and 360 μL of treatment media containing 40 μL […] was then added. Plates were incubated at 37° C. for 10 days; medium containing 10% […] was replaced to the top of the […] every 3 days. Colonies were stained with crystal violet on day 10 and each well was counted by light microscopy (20×).
(§2) These concentrations were selected on the basis of proliferative effects in 2D cultures.

T47D:A18/PKCα cells [3] = assay: Colony formation assay in […], T47D:A18/PKCα; assay type: cell-based; details: 3D culture, 10 days; E2 1 nM, BTC 100 nM, TTC-352 100 nM
Experimental: as §1, §2

T47D:A18/PKCα tumors = assay: T47D:A18/PKCα xenograft tumor regression; assay type: in vivo, mice; details: for T47D:A18/PKCα tumor regression / T47D:A18/PKCα mean tumor size: at two weeks; for T47D:A18/PKCα tumor regression: 1.5 mg/day p.o. (E2: capsule), start ~0.5 cm^2 = 100%; for persistence of T47D:A18/PKCα tumor regression after end of treatment: after two weeks of 1.5 mg/day p.o.; for T47D:A18/PKCα mean tumor size: 1.5 mg/day p.o.
T47D:A18/neo tumors = assay: T47D:A18/neo xenograft tumor growth; assay type: in vivo, mice; details: for T47D:A18/neo average tumor size: following seven weeks of treatment, 1.5 mg/day p.o. (E2: capsule); for stimulation of growth of T47D:A18/neo xenograft tumors in vivo: 1.5 mg/day p.o., seven weeks
uteri [4] = assay: Uterine weights of ovariectomized athymic mice (7 weeks); assay type: in vivo; details: following 7 weeks of treatment; 1.5 mg/day p.o. (E2: capsule)
[5] = tested on: T47D-Tam1 xenograft tumors; assay: T47D-Tam1 TAM-resistant xenograft tumors (Example 11); assay type: in vivo, mice; details: TTC-352 1.5 mg/day p.o. daily for seven weeks; E2 capsule
[6] = tested on: T47D/PKCα xenograft tumors; assay: T47D/PKCα TAM-resistant xenograft tumors (Example 11); assay type: in vivo, mice; details: TTC-352 or raloxifene 1.5 mg/day p.o., seven weeks, also after withdrawal; E2 capsule
[7] = silastic capsules (1.0 cm) implanted subcutaneously; reference 14; cited from earlier work
T47D:A18/PKCα cells [8] = details: reference 11; cited from earlier work
[9] = tested on: MCF-7 human mammary cancer cells; details: references 16-19; cited from earlier work
[10] = tested on: Ishikawa human endometrial cancer cells; details: references 16-19; cited from earlier work
uteri [11] = details: references 29-32, cited from earlier work
[12] = humans; cited from earlier work
T47D:A18/neo cells [13] = assay: DNA growth assay (2D culture), T47D:A18/neo; assay type: cell-based; details: only the higher concentration, 100 nM, E2 1 nM
T47D:A18/PKCα cells [14] = assay: DNA growth assay (2D culture), T47D:A18/PKCα; assay type: cell-based; details: E2-free media, 1 nM, 10 nM, 100 nM
[15] = tested on: ERα transcriptional activity in T47D:A18/neo cells; assay type: cell-based
[16] = tested on: ERα transcriptional activity in T47D:A18/PKCα cells; assay: ERE-luciferase reporter assay, T47D:A18/PKCα; assay type: cell-based; details: for ER agonist character in T47D:A18/PKCα cells in vitro: ERE-luciferase, 1 nM, 10 nM, 100 nM
ERα = molecular target: T1, ERα (Homo sapiens, UniProt P03372); assay: ERα localization in T47D:A18/PKCα tumors by immunofluorescence; assay type: in vivo, mice; details: immunofluorescence staining of tumors
T1 sequence (P03372 1-595): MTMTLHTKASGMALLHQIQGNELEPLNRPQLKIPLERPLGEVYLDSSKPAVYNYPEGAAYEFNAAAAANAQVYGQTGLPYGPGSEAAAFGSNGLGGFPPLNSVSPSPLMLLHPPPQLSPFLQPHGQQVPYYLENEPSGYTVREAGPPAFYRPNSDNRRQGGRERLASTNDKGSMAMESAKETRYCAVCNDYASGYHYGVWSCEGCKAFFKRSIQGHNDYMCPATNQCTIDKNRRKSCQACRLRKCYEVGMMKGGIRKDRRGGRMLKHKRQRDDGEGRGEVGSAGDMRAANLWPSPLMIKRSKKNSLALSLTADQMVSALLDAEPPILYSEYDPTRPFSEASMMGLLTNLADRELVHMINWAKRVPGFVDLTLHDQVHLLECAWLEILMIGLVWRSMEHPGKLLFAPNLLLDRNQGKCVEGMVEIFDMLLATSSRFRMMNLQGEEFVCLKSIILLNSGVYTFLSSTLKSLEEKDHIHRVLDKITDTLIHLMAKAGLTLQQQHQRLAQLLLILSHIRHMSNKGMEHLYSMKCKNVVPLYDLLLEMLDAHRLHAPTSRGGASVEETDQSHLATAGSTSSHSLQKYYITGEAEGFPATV
Experimental: Tumor immunofluorescence confocal microscopy and co-localization analysis. Tumor sections (4 μm) were cut from paraffin blocks and prepared for IF staining by deparaffinization and rehydration. Antigen retrieval was performed by incubating slides in Tris-EDTA (pH=9.0) buffer at 90° C. and allowed to cool at room temperature for 45 min. Slides were blocked with antibody diluent (DAKO, Carpinteria, Calif. USA) for 20 min followed by primary antibody at 1:100 in antibody diluent for 1 h at room temperature. Slides were incubated with fluorescence-conjugated secondary antibodies at 1:100 in antibody diluent for 45 min at room temperature followed by DAPI (4′, 6-diamidino-2-phenylindole [1 μg/mL], DAKO, Carpinteria, Calif. USA) for 15 min. Slides were mounted with Vectashield mounting media (Vector Laboratories, Burlingame, Calif. USA). Confocal analysis was performed with a Zeiss LSM 510 microscope (Carl Zeiss, Incorporated, North America, Thornwood, N.Y. USA).
We have previously reported the possible involvement of an extranuclear ER in E2-induced tumor regression (11, 15).

[17] = Body weights of mice bearing T47D:A18/neo tumors; assay type: in vivo; details: seven week treatment, 1.5 mg/day p.o.
From the text: B) Body weights of treated mice from (A). C) Uterine weights from mice in (A). Weights are reported as uterine weight (mg)/body weight (g). *, P<0.05 versus control. Graphs show mean SEM.
Since BTC and TTC-352 treatment result in growth of T47D:A18/neo cells in 2D culture (FIGS. 1C and 1E) and in 3D […] (FIG. 2A), we next sought to determine if BTC and TTC-352 could sustain the growth of T47D:A18/neo tumors in vivo. […] Additionally, no significant weight loss was observed over the seven week treatment period (FIG. 5B).

uteri [18] = assay: Uterine weights of mice (Example 11); assay type: in vivo; details: TTC-352 1.5 mg/day
[19] = Plasma levels of BTC after oral administration to mice; assay type: in vivo; details: single oral dose 10 mg/kg, ovariectomized athymic nude mice

Compound	T47D:A18/neo colony growth in MATRIGEL (T47D:A18/neo cells [2])	T47D:A18/PKCα colony formation in MATRIGEL (T47D:A18/PKCα cells [3])	T47D:A18/PKCα tumor regression (T47D:A18/PKCα tumors) [%]	T47D:A18/neo average tumor size (T47D:A18/neo tumors) [cm^2]	uterine weights of ovariectomized mice (uteri [4])	T47D-Tam1 xenograft tumor response [5]	T47D/PKCα xenograft tumor response [6]	persistence of T47D:A18/PKCα tumor regression after end of treatment (T47D:A18/PKCα tumors)	estrogen agonist/antagonist character in MCF-7 cells [9]	estrogen agonist/antagonist character in Ishikawa cells [10]	effect on the proliferation of T47D:A18/neo cells relative to E2 (T47D:A18/neo cells [13])	proliferation of T47D:A18/PKCα cells (DNA content) (T47D:A18/PKCα cells [14])	ER agonist character in T47D:A18/PKCα cells in vitro [16]	T47D:A18/PKCα mean tumor size (T47D:A18/PKCα tumors) [cm^2]	ERα localization in regressing T47D:A18/PKCα tumors (ERα)	stimulation of growth of T47D:A18/neo xenograft tumors in vivo (T47D:A18/neo tumors)	body weight of treated mice [17]	potency in Ishikawa cells relative to E2 [10]	also measured
Oc1ccc(-c2sc3cc(O)ccc3c2Oc2ccc(OCCN3CCCCC3)cc2)cc1 [DMA, Desmethylarzoxifene]																			remaining drug in plasma [1]: not observed above detection limits
C[C@]12CC[C@@H]3c4ccc(O)cc4CC[C@H]3[C@@H]1CC[C@@H]2O [E2, 17β-estradiol, reference compound]	stimulated	inhibited	~98	~0.35	significant proliferative actions	growth is inhibited by E2 treatment	growth is inhibited by E2 treatment												mean serum E2 level [7]: 379.5 pg/mL
O=C(c1ccc(OCCN2CCCCC2)cc1)c1c(-c2ccc(O)cc2)sc2cc(O)ccc12 [RAL, raloxifene]			~50				caused tumor regression, however, drug withdrawal led to relapse	failure of RAL-induced regression to persist after drug withdrawal	estrogen antagonist	estrogen antagonist									T47D:A18/PKCα MATRIGEL colony formation (previously reported) (T47D:A18/PKCα cells [8]): unable to inhibit MATRIGEL colony formation; luminal epithelial cell thickness in ovariectomized rats (uteri [11]; doses up to 10 mg/kg/day): did not increase luminal epithelial cell thickness; uterine weight in ovariectomized rats (uteri [11]; minimally effective dose): did not increase uterine weight; oral clearance [12]: 441 kg⁻¹ h⁻¹
Oc1ccc(Oc2sc3cc(O)ccc3c2-c2ccc(F)cc2)cc1 [TTC-352, 3-(4-fluorophenyl)-2-(4-hydroxyphenoxy)benzo[b]thiophen-6-ol]	stimulated	inhibited	~70	~0.1	no significant increase in the uterine weights	tumor regression comparable to that of E2-treated tumors	tumor regression comparable to that of E2-treated tumors	sustained for at least four weeks post-treatment	estrogen agonist	nanomolar estrogen agonists	comparable to E2(1 nM) treatment	proliferated in the presence of BTC and TTC-352 at all concentrations tested	act as ER agonists	~0.18	exit of ERα from the nucleus	neither compound was able to significantly stimulate the growth	no effect	three orders of magnitude below that of E2	ERα transcriptional activity (ERE-luciferase) in T47D:A18/neo cells ([15]; 24 hours): increase in ERα transcriptional activity; uterine weight in mice (uteri [18]): did not increase uterine weight
CC/C(=C(\c1ccccc1)c1ccc(OCCN(C)C)cc1)c1ccccc1 [TAM, tamoxifen]					significant proliferative actions		TAM-resistant												
Oc1ccc(-c2cc3ccc(O)cc3s2)cc1 [BTC, 2-(4-hydroxyphenyl)benzo[b]thiophen-6-ol]	stimulated	inhibited	~88	~0.04	no significant increase in the uterine weights			sustained for at least four weeks post-treatment	estrogen agonist	nanomolar estrogen agonists	comparable to E2(1 nM) treatment	proliferated in the presence of BTC and TTC-352 at all concentrations tested	act as ER agonists	~0.07	exit of ERα from the nucleus	neither compound was able to significantly stimulate the growth	no effect	three orders of magnitude below that of E2	ERα transcriptional activity (ERE-luciferase) in T47D:A18/neo cells [15]: increase in ERα transcriptional activity; ERE-luciferase induction in T47D:A18/PKCα cells compared with T47D:A18/neo cells ([16]; 100 nM and 10 nM): more sensitive than T47D:A18/neo cells; concentration at 6 h ([19]; female, mouse, plasma, 6 h): 10 ng/mL; peak plasma concentration ([19]; at 30 min): 40 ng/mL
